Patent publication US20230066011A1, “PYRROLOPYRIMIDINE DERIVATIVE, AND PHARMACEUTICAL COMPOSITION FOR PREVENTING OR TREATING PROTEIN KINASE-RELATED DISEASE COMPRISING SAME AS ACTIVE INGREDIENT” (VORONOI CO., LTD., priority 2019, published 2023)

Assays:
[1] = target: T1, human GST-DYRK1A (Homo sapiens, UniProt Q13627); assay: GST-DYRK1A enzyme inhibition, ADP-Glo kinase assay; format: biochemical; settings: ATP 10 μM, GST-DYRK1A full length, read-out: DYRK1 IC50
T1 construct: purified human GST-DYRK1A (full length, Thermo Scientifics) enzyme; purchased Thermo Scientifics
Procedure, shortened: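 Full-length enzyme (10 ng) was incubated with 10 μM ATP and a specific substrate for 1 h at 25 °C in 40 mM Tris-HCl pH 7.4, 20 mM MgCl2, 0.5 mg/mL BSA, 50 μM DTT. Luminescence was read against a solvent control, and IC50 values were derived from 3 data sets.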

[2] = tested on: IL-6; assay: Inhibition of LPS-induced IL-6 secretion of THP-1 monocytes (ELISA); format: cell-based, human; settings: Homo sapiens, THP-1; compound 0.5 μM, LPS 500 ng/mL, 24 hours; read-out: THP1/IL6 (% inhib)
Procedure, shortened: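 THP-1 monocytes grown 16 h at 37 °C, pretreated 1 h with compound at final 0.5 μM, then stimulated with LPS at final 500 ng/mL for 24 h. IL-6 and TNF-α in culture supernatant measured by ELISA (OD 450 nm).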

[3] = tested on: MDA-MB-468 cell line; assay: Inhibition of proliferation of MDA-MB-468 cancer cells (Cell Titer-Glo); format: cell-based; settings: Homo sapiens, MDA-MB-468, 72 hours
Procedure, shortened: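 2,000 cells/well, DMEM or RPMI; 11-pt 3-fold dilution, final 10.000000–0.000169 μM; 72 h. CellTiter-Glo, 10 min RT, luminescence read; GI50 fitted.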

[4] = target: LRRK2 (G2019S) (Homo sapiens, UniProt Q5S007, G2019S); assay: LRRK2 G2019S enzyme inhibition, ADP-Glo kinase assay; format: biochemical; parameters: purchased SignalChem L10-12GG; settings: ATP 25 μM
LRRK2 (G2019S), sequence (Q5S007 970-2527 G2019S limits assumed): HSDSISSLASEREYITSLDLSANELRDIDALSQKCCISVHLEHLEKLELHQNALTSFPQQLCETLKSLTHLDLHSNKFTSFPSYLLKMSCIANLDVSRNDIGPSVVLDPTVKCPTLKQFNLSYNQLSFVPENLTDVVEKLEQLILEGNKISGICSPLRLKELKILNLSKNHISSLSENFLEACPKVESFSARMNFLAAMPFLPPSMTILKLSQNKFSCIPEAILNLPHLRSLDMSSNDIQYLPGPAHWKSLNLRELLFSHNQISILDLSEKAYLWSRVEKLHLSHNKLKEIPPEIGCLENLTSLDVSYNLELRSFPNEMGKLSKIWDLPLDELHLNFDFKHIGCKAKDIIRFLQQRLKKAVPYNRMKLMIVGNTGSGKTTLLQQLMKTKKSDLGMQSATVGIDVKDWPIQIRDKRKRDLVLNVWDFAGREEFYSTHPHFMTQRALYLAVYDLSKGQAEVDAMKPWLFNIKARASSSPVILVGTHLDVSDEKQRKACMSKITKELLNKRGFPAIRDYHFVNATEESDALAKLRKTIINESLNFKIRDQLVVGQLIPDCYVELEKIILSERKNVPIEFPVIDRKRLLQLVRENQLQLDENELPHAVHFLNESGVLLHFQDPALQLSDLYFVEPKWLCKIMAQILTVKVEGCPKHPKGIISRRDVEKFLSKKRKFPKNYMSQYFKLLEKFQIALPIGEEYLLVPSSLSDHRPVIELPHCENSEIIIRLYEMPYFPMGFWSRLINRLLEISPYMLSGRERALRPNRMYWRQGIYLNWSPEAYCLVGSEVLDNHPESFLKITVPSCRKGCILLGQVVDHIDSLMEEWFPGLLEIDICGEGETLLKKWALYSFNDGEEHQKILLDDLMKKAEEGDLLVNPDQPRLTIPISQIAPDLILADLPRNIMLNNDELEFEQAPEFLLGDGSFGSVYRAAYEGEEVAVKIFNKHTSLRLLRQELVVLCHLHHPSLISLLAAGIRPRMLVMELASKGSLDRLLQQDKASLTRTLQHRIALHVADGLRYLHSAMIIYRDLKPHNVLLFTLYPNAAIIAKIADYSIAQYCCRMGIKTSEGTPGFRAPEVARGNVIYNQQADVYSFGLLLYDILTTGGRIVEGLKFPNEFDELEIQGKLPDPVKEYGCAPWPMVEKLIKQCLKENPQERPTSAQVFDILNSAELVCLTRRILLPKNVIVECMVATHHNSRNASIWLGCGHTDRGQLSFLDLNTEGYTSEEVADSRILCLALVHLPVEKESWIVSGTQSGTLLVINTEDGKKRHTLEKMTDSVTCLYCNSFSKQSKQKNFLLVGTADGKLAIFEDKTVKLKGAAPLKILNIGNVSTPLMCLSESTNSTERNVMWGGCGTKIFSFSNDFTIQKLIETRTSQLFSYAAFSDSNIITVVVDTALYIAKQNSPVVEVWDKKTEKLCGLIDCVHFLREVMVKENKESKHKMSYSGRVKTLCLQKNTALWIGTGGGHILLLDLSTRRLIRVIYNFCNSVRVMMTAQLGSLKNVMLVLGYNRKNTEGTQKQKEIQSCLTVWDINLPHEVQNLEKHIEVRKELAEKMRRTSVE
Procedure, shortened: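 IC50 derived from luminescent ADP-Glo readout against untreated solvent control, twelve final compound concentrations from 50 μM downward. Reaction: recombinant human LRRK2 G2019S enzyme, 25 μM ATP, substrate, pH 7.4 Tris buffer with MgCl2/BSA/DTT, 25° C. for 2 hours.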

Row | SMILES | IC50 [1] [nM] | GI50 [3] [nM] | IC50 [4] [nM] | inhibition at 0.5 µM [2] [%]
1 | CNc1nc(Nc2ccc(C(=O)N3CCN(C4COC4)CC3)c3c2OCCO3)nc2[nH]cc(C(F)(F)F)c12 [Example 397, (8-((4-(methylamino)-5-(trifluoromethyl)-7H-pyrrolo[2,3-d]pyrimidin-2-yl)amino)-2,3-dihydrobenzo[b] [1,4]dioxin-5-yl) (4-(oxetan-3-yl)piperazin-1-yl)methanone] | 101 to 300 | 301 to 1000 | < 100 | 32
2 | CNc1nc(Nc2cc(F)c(S(=O)(=O)N3CCC(N4CCOCC4)CC3)cc2OC)nc2[nH]cc(C(F)(F)F)c12 [Example 231, N^2-(5-fluoro-2-methoxy-4-((4-morpholinopiperidin-1-yl)sulfonyl)phenyl)-N^4-methyl-5-(trifluoromethyl)-7H-pyrrolo[2,3-d]pyrimidine-2,4-diamine] | 101 to 300 | 301 to 1000 | < 100 | –
3 | O=C(c1ccc(Nc2nc(NC3CCCCC3)c3c(C(F)(F)F)c[nH]c3n2)c2c1OCCO2)N1CCN(C2COC2)CC1 [Example 415, (8-((4-(cyclo-hexylamino)-5-(trifluoromethyl)-7H-pyrrolo[2,3-d]pyrimidin-2-yl)amino)-2,3-dihydrobenzo[b] [1,4]dioxin-5-yl) (4-(oxetan-3-yl)piperazin-1-yl)methanone] | 301 to 1000 | 101 to 300 | 301 to 1000 | –
4 | COc1cc(S(=O)(=O)N2CCC(N3C[C@H]4C[C@@H]3CO4)CC2)ccc1Nc1nc(C2CC2)c2c(C(F)(F)F)c[nH]c2n1 [Example 473, N-(4-((4-((1R,4R)-2-oxa-5-azabicyclo[2.2.1]heptan-5-yl)piperidin-1-yl)sulfonyl)-2-methoxyphenyl)-4-cyclopropyl-5-(trifluoromethyl)-7H-pyrrolo[2,3-d]pyrimidin-2-amine] | – | 301 to 1000 | – | 31
5 | CNc1nc(Nc2ccc(S(=O)(=O)N3CCC(N4CCOCC4)CC3)cc2OC)nc2[nH]cc(C(F)(F)F)c12 [Example 157, N^2-(2-methoxy-4-((4-morpholinopiperidin-1-yl)sulfonyl)phenyl)-N^4-methyl-5-(trifluoromethyl)-7H-pyrrolo[2,3-d]pyrimidine-2,4-diamine 2,2,2-trifluoroacetate] | < 100 | – | < 100 | 1.6
6 | O=C(c1ccc(Nc2nc(C3CC3)c3c(C(F)(F)F)c[nH]c3n2)c2c1OCCO2)N1CCC(N2CCOCC2)CC1 [Example 228, (8-((4-cyclopropyl-5-(trifluoromethyl)-7H-pyrrolo[2,3-d]pyrimidin-2-yl)amino)-2,3-dihydrobenzo[b][1,4]dioxin-5-yl)(4-morpholinopiperidin-1-yl)methanone] | – | 301 to 1000 | < 100 | –
7 | COCCNc1nc(Nc2ccc(C(=O)N3CCC(N4CCOCC4)CC3)c3c2OCC3)nc2[nH]cc(C#N)c12 [Example 359, 4-((2-methoxy-ethyl)ami-no)-2-((4-(4-morpholino-piperidine-1-carbonyl)-2,3-dihydro-benzofuran-7-yl)amino)-7H-pyrrolo[2,3-d]pyrimidine-5-carbonitrile] | < 100 | 301 to 1000 | – | 32
8 | COCCNc1nc(Nc2ccc(C(=O)N3CCN(C4COC4)CC3)c3c2OCCO3)nc2[nH]cc(C(F)(F)F)c12 [Example 403, (8-((4-((2-methoxyethyl)-amino)-5-(trifluoromethyl)-7H-pyrrolo[2,3-d]pyrimidin-2-yl)amino)-2,3-dihydrobenzo[b] [1,4]dioxin-5-yl) (4-(oxetan-3-yl)piperazin-1-yl)methanone] | < 100 | 301 to 1000 | – | 30.1
9 | COc1cc(P2(=O)CCN(C3CCOCC3)CC2)ccc1Nc1nc(NC2CC2)c2c(C(F)(F)F)c[nH]c2n1 [Example 435, 4-(4-((4-(cyclo-propylamino)-5-(trifluoromethyl)-7H-pyrrolo[2,3-d]pyrimidin-2-yl)amino)-3-methoxyphenyl)-1-(tetrahydro-2H-pyran-4-yl)-1,4-azaphosphinane 4-oxide] | < 100 | – | – | 22.2
10 | O=C(c1ccc(Nc2nc(NC3CCC3)c3c(C(F)(F)F)c[nH]c3n2)c2c1OCCO2)N1CCN(C2COC2)CC1 [Example 407, (8-((4-(cyclo-butylamino)-5-(trifluoromethyl)-7H-pyrrolo[2,3-d]pyrimidin-2-yl)amino)-2,3-dihydrobenzo[b] [1,4]dioxin-5-yl) (4-(oxetan-3-yl)piperazin-1-yl)methanone] | < 100 | 301 to 1000 | – | 20.2
11 | CCNc1nc(Nc2ccc(C(=O)N3CC[C@H](N4CCOCC4)C3)c3c2OCC3)nc2[nH]cc(C(F)(F)F)c12 [Example 475, (S)-(7-((4-(ethylamino)-5-(trifluoromethyl)-7H-pyrrolo[2,3-d]pyrimidin-2-yl)amino)-2,3-dihydrobenzo-furan-4-yl)(3-morpholino-pyrrolidin-1-yl)methanone] | < 100 | – | < 100 | 42.5
12 | O=C(c1ccc(Nc2nc(NCC3CC3)c3c(C(F)(F)F)c[nH]c3n2)c2c1CCO2)N1CCC(N2CCOCC2)CC1 [Example 461, (7-((4-((cyclo-propylmeth-yl)amino)-5-(trifluoromethyl)-7H-pyrrolo[2,3-d]pyrimidin-2-yl)amino)-2,3-dihydrobenzo-furan-4-yl)(4-morpho-linopiperidin-1-yl)methanone] | < 100 | – | < 100 | 25.7
13 | CCNc1nc(Nc2cc(F)c(S(=O)(=O)N3CCC(N4CCOCC4)CC3)cc2OC)nc2[nH]cc(C(F)(F)F)c12 [Example 232, N^4-ethyl-N^2-(5-fluoro-2-methoxy-4-((4-morpholinopiperidin-1-yl)sulfonyl)phenyl)-5-(trifluoromethyl)-7H-pyrrolo[2,3-d]pyrimidine-2,4-diamine] | 301 to 1000 | 301 to 1000 | < 100 | –

The next lines start with results.

Row | IC50 [1] [nM] | GI50 [3] [nM] | IC50 [4] [nM] | SMILES | inhibition at 0.5 µM [2] [%]
14 | < 100 | 101 to 300 | < 100 | O=C(c1ccc(Nc2nc(NC3CCCC3)c3c(C(F)(F)F)c[nH]c3n2)c2c1OCCO2)N1CCN(C2COC2)CC1 [Example 414, (8-((4-(cyclopentyl-amino)-5-(trifluoromethyl)-7H-pyrrolo[2,3-d]pyrimidin-2-yl)amino)-2,3-dihydrobenzo[b] [1,4]dioxin-5-yl) (4-(oxetan-3-yl)piperazin-1-yl)methanone] | 47.3
15 | < 100 | 301 to 1000 | < 100 | CCNc1nc(Nc2ccc(C(=O)N3CCC(N4CCOCC4)CC3)c3c2OCC3)nc2[nH]cc(C(F)(F)F)c12 [Example 438, (7-((4-(ethylamino)-5-(trifluoromethyl)-7H-pyrrolo[2,3-d]pyrimidin-2-yl)amino)-2,3-dihydrobenzo-furan-4-yl)(4-morpho-linopiperidin-1-yl)methanone] | 25.8
16 | < 100 | 301 to 1000 | – | COCCNc1nc(Nc2ccc(P3(=O)CCN(C4CCOCC4)CC3)cc2OC)nc2[nH]cc(C(F)(F)F)c12 [Example 444, 4-(3-methoxy-4-((4-((2-methoxyethyl)amino)-5-(trifluoromethyl)-7H-pyrrolo[2,3-d]pyrimidin-2-yl)amino)phenyl)-1-(tetrahydro-2H-pyran-4-yl)-1,4-azaphosphinane 4-oxide] | 20
17 | < 100 | – | < 100 | CCNc1nc(Nc2ccc(C(=O)N3CCC(N4CCOCC4)CC3)c3c2OCC3)nc2[nH]cc(C#N)c12 [Example 347, 4-(ethylamino)-2-((4-(4-morpholino-piperidine-1-carbonyl)-2,3-dihydro-benzofuran-7-yl)amino)-7H-pyrrolo[2,3-d]pyrimidine-5-carbonitrile] | 14.1
18 | < 100 | – | < 100 | CNc1nc(Nc2ccc(C(=O)N3CC[C@H](N4CCOCC4)C3)c3c2OCC3)nc2[nH]cc(C(F)(F)F)c12 [Example 236, (S)-(7-((4-(methylamino)-5-(trifluoromethyl)-7H-pyrrolo[2,3-d]pyrimidin-2-yl)amino)-2,3-dihydrobenzofuran-4-yl)(3-morpholinopyrrolidin-1-yl)methanone] | 22.9
19 | < 100 | 301 to 1000 | < 100 | O=C(c1ccc(Nc2nc(NC3CC3)c3c(C(F)(F)F)c[nH]c3n2)c2c1OCCO2)N1CCN(C2COC2)CC1 [Example 405, (8-((4-(cyclo-propylamino)-5-(trifluoromethyl)-7H-pyrrolo[2,3-d]pyrimidin-2-yl)amino)-2,3-dihydrobenzo[b] [1,4]dioxin-5-yl) (4-(oxetan-3-yl)piperazin-1-yl)methanone] | –
